Laboratory results: patent publication US20250034135A1, “ANTI-APOPTOTIC PROTEIN BCL-2 INHIBITOR, PHARMACEUTICAL COMPOSITION AND USES THEREOF” (HANGZHOU HEALZEN THERAPEUTICS CO., LTD., priority 2021, published 2025)

Target: BCL2 (Homo sapiens (Human), UniProt P10415)
Experiment: Molecular level activity test of anti-apoptotic protein BCL2 (HTRF, binding to Bim peptide)
Details: HTRF, binding of BCL2 to Bim peptide; read-out: BCL2 nM (inhibitory activity, IC50)
Method: The detection of the binding ability between anti-apoptotic protein BCL2 and pro-apoptotic protein Bim was performed using Homogeneous Time-Resolved Fluorescence technology. The reaction of this method occurred in a white shallow 384-well plate, with a total reaction volume of 10 μL. Specifically, it included 2 μL of the compound to be tested (2% DMSO), 4 μL His-tagged recombinant protein, and 4 μL Biotin-tagged BIM protein peptide. After 1 hour of reaction, 5 μL of each Anti-His and streptavidin-tagged XL665 antibody diluents diluted with a detection buffer were added. After incubating at room temperature for 4 hours, the values were read using the Envision multifunctional microplate reader to detect the effect of the compound to be tested on the binding ability of BCL2 to Bim protein peptides.

BCL2, sequence (P10415 whole entry): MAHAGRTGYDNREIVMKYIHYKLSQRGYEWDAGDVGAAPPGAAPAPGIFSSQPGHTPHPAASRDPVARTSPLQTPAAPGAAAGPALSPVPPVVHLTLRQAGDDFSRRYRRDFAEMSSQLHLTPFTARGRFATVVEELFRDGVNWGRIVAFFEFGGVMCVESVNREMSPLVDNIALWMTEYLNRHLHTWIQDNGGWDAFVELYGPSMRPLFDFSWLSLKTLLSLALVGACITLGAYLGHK

Compound	IC50
CC(C)c1ccccc1[C@@H]1CN(Cc2ccncc2)CCN1C1CC2(CCN(c3cc(Oc4cnc5[nH]ccc5c4)c(C(=O)NS(=O)(=O)c4ccc(NC[C@H]5CC[C@](C)(O)CC5)c([N+](=O)[O-])c4)cc3F)CC2)C1 [compound 231, 2-((1H-pyrrolo[2,3-b]pyrid-5-yl)oxy)-5-fluoro-N-((4-((((1r, 4r)-4-hydroxy-4-methylcyclohexyl)methyl)amino)-3-nitrophenyl)sulfonyl)-4-(2-((R)-2-(2-isopropylphenyl)-4-(pyrid-4-ylmethyl)piperazin-1-yl)-7-azaspiro[3.5]non-7-yl)benzamide]	< 10 nM
COc1ccc(CN2CCN(C3CC4(CCN(c5cc(Oc6cnc7[nH]ccc7c6)c(C(=O)NS(=O)(=O)c6cc([N+](=O)[O-])c(NC[C@H]7COCCO7)c7ocnc67)cc5F)CC4)C3)[C@H](c3ccccc3C(C)C)C2)cc1 [compound 124]	< 10 nM
COc1cc(CN2CCN(C3CC4(CCN(c5ccc(C(=O)NS(=O)(=O)c6cc([N+](=O)[O-])c(NCC7(F)CCOCC7)c7c6OCO7)c(Oc6cnc7[nH]ccc7c6)c5)CC4)C3)[C@H](c3ccccc3C(C)C)C2)ccc1C1CC1 [compound 173, (R)-2-((1H-pyrrolo[2,3-b]pyrid-5-yl)oxy)-4-(2-(4-(4-cyclopropyl-3-methoxybenzyl)-2-(2-isopropylphenyl)piperazin-1-yl)-7-azaspiro[3.5]non-7-yl)-N-((7-(((4-fluorotetrahydro-2H-pyran-4-yl)methyl)amino)-6-nitrobenzo[d][1,3]dioxocyclopent-4-yl)sulfonyl)benzamide]	< 10 nM
CC(=O)Nc1ccc(CN2CCN(C3CC4(CCN(c5cc(Oc6cnc7[nH]ccc7c6)c(C(=O)NS(=O)(=O)c6ccc(NCC7(F)CCOCC7)c([N+](=O)[O-])c6)cc5F)CC4)C3)[C@H](c3ccccc3C(C)C)C2)cc1 [compound 200, (R)-2-((1H-pyrrolo[2,3-b]pyrid-5-yl)oxy)-4-(2-(4-(4-acetylaminobenzyl)-2-(2-isopropylphenyl)piperazin-1-yl)-7-azaspiro[3.5]non-7-yl)-5-fluoro-N-((4-(((4-fluorotetrahydro-2H-pyran-4-yl)methyl)amino)-3-nitrophenyl)sulfonyl)benzamide]	< 10 nM
CC(C)c1ccccc1[C@@H]1CCCN1C1CC2(CCN(c3ccc(C(=O)NS(=O)(=O)c4cc([N+](=O)[O-])c(NC[C@H]5COCCO5)c5c4OCO5)c(Oc4cnc5[nH]ccc5c4)c3)CC2)C1 [compound 161, N-((7-((((S)-1,4-dioxan-2-yl)methyl)amino)-6-nitrobenzo[d][1,3]dioxocyclopent-4-yl)sulfonyl)-2-((1H-pyrrolo[2,3-b]pyrid-5-yl)oxy)-4-(2-((S)-2-(2-isopropylphenyl)pyrrolidin-1-yl)-7-azaspiro[3.5]non-7-yl)benzamide]	< 10 nM
CC(C)c1ccccc1[C@@H]1CCCN1C1CC2(CCN(c3cc(Oc4cnc5[nH]ccc5c4)c(C(=O)NS(=O)(=O)c4cc([N+](=O)[O-])c(NC[C@H]5CC[C@](C)(O)CC5)c5scnc45)cc3F)CC2)C1 [compound 098, 2-((1H-pyrrolo[2,3-b]pyrid-5-yl)oxy)-5-fluoro-N-((7-((((1r, 4r)-4-hydroxy-4-methylcyclohexyl)methyl)amino)-6-nitrobenzo[d]thiazol-4-yl)sulfonyl)-4-(2-((S)-2-(2-isopropylphenyl)pyrrolidin-1-yl)-7-azaspiro[3.5]non-7-yl)benzamide]	< 10 nM
CC(C)c1ccccc1[C@@H]1CN(Cc2ccc(C3CC3)cc2)CCN1C1CC2(CCN(c3cc(Oc4cnc5[nH]ccc5c4)c(C(=O)NS(=O)(=O)c4ccc(NC[C@H]5CC[C@](C)(O)CC5)c([N+](=O)[O-])c4)cc3F)CC2)C1 [compound 219, 2-((1H-pyrrolo[2,3-b]pyrid-5-yl)oxy)-4-(2-((R)-4-(4-cyclopropylbenzyl)-2-(2-isopropylphenyl)piperazin-1-yl)-7-azaspiro[3.5]non-7-yl)-5-fluoro-N-((4-((((1r, 4r)-4-hydroxy-4-methylcyclohexyl)methyl)amino)-3-nitrophenyl)sulfonyl)benzamide]	< 10 nM
COc1ccc(CN2CCN(C3CC4(CCN(c5cc(Oc6cnc7[nH]ccc7c6)c(C(=O)NS(=O)(=O)c6ccc(NC[C@H]7CC[C@](C)(O)CC7)c([N+](=O)[O-])c6)cc5F)CC4)C3)[C@H](c3ccccc3C(C)C)C2)c2c1OCCO2 [compound 228, 2-((1H-pyrrolo[2,3-b]pyrid-5-yl)oxy)-5-fluoro-N-((4-((((1r, 4r)-4-hydroxy-4-methylcyclohexyl)methyl)amino)-3-nitrophenyl)sulfonyl)-4-(2-((R)-2-(2-isopropylphenyl)-4-((8-methoxy-2,3-dihydrobenzo[b][1,4]dioxan-5-yl)methyl)piperazin-1-yl)-7-azaspiro[3.5]non-7-yl)benzamide]	< 10 nM
CC(=O)N1CCC(F)(CNc2c([N+](=O)[O-])cc(S(=O)(=O)NC(=O)c3cnc(N4CCC5(CC4)CC(N4CCC[C@H]4c4ccccc4C(C)C)C5)cc3Oc3cnc4[nH]ccc4c3)c3nc[nH]c23)CC1 [compound 027, (S)-4-((1H-pyrrolo[2,3-b]pyrid-5-yl)oxy)-N-((7-(((1-acetyl-4-fluoropiperid-4-yl)methyl)amino)-6-nitro-1H-benzo[d]imidazol-4-yl)sulfonyl)-6-(2-(2-(2-isopropylphenyl)pyrrolidin-1-yl)-7-azaspiro[3.5]non-7-yl) nicotinamide]	< 10 nM
COc1ccc(CN2C[C@@H](c3ccccc3C(C)C)N(C3CC4(CCN(c5cc(Oc6cnc7[nH]ccc7c6)c(C(=O)NS(=O)(=O)c6ccc(NCC7(F)CCOCC7)c([N+](=O)[O-])c6)cc5F)CC4)C3)C[C@@H]2C)cc1 [compound 154, 2-((1H-pyrrolo[2,3-b]pyrid-5-yl)oxy)-5-fluoro-N-((4-(((4-fluorotetrahydro-2H-pyran-4-yl)methyl)amino)-3-nitrophenyl)sulfonyl)-4-(2-((2R,5S)-2-(2-isopropylphenyl)-4-(4-methoxybenzyl)-5-methylpiperazin-1-yl)-7-azaspiro[3.5]non-7-yl)benzamide]	< 10 nM

More lines, now with the values ahead:

IC50	Compound
< 10 nM	COc1ccc(CN2CCN(C3CC4(CCN(c5cc(Oc6cnc7[nH]ccc7c6)c(C(=O)NS(=O)(=O)c6cc([N+](=O)[O-])c(NCC7(F)CCN(C(C)C)CC7)c7[nH]cnc67)cc5F)CC4)C3)C(c3ccccc3C(C)C)C2)cc1 (stereo not drawn) [compound 073, 2-((1H-pyrrolo[2,3-b]pyrid-5-yl)oxy)-5-fluoro-N-((7-(((4-fluoro-1-isopropylpiperid-4-yl)methyl)amino)-6-nitro-1H-benzo[d]imidazol-4-yl)sulfonyl)-4-(2-(2-(2-isopropylphenyl)-4-(4-methoxybenzyl)piperazin-1-yl)-7-azaspiro[3.5]non-7-yl)benzamide]
< 10 nM	CC(C)c1ccccc1[C@@H]1CN(Cc2ccc(F)cc2)CCN1C1CC2(CCN(c3cc(Oc4cnc5[nH]ccc5c4)c(C(=O)NS(=O)(=O)c4ccc(NC[C@H]5CC[C@](C)(O)CC5)c([N+](=O)[O-])c4)cc3F)CC2)C1 [compound 215, 2-((1H-pyrrolo[2,3-b]pyrid-5-yl)oxy)-5-fluoro-4-(2-((R)-4-(4-fluorobenzyl)-2-(2-isopropylphenyl)piperazin-1-yl)-7-azaspiro[3.5]non-7-yl)-N-((4-((((1r, 4r)-4-hydroxy-4-methylcyclohexyl)methyl)amino)-3-nitrophenyl)sulfonyl)benzamide]
< 10 nM	COc1ccc(CN2CCN(C3CC4(CCN(c5ccc(C(=O)NS(=O)(=O)c6cc([N+](=O)[O-])c(NC[C@H]7CC[C@](C)(O)CC7)c7[nH]cnc67)c(N6CCOc7nc8[nH]ccc8cc76)c5)CC4)C3)C(c3ccccc3C(C)C)C2)cc1 (stereo partly drawn) [compound 089, 2-(2,3-dihydropyrrolo[3′,2′:5,6]pyridino[2,3-b][1,4]oxazin-1 (6H)-yl)-N-((7-((((1r,4r)-4-hydroxy-4-methylcyclohexyl)methyl)amino)-6-nitro-1H-benzo[d]imidazol-4-yl)sulfonyl)-4-(2-(2-(2-isopropylphenyl)-4-(4-methoxybenzyl)piperazin-1-yl)-7-azaspiro[3.5]non-7-yl)benzamide]
< 10 nM	CC(C)c1ccccc1[C@@H]1CCCN1C1CC2(CCN(c3ccc(C(=O)NS(=O)(=O)c4cc([N+](=O)[O-])c(NC[C@H]5CC[C@](C)(O)CC5)c5[nH]cnc45)c(N4CCOc5nc6[nH]ccc6cc54)c3)CC2)C1 [compound 079, 2-(2,3-dihydropyrrolo[3′,2′:5,6]pyridino[2,3-b][1,4]oxazin-1 (6H)-yl)-N-((7-((((1r,4r)-4-hydroxy-4-methylcyclohexyl)methyl)amino)-6-nitro-1H-benzo[d]imidazol-4-yl)sulfonyl)-4-(2-((S)-2-(2-isopropylphenyl)pyrrolidin-1-yl)-7-azaspiro[3.5]non-7-yl)benzamide]
< 10 nM	CC(C)c1ccccc1[C@@H]1CN(Cc2ccc(C3CC3)cc2)CCN1C1CC2(CCN(c3ccc(C(=O)NS(=O)(=O)c4cc([N+](=O)[O-])c(NC[C@H]5CC[C@](C)(O)CC5)c5c4OCO5)c(Oc4cnc5[nH]ccc5c4)c3)CC2)C1 [compound 178, 2-((1H-pyrrolo[2,3-b]pyrid-5-yl)oxy)-4-(2-((R)-4-(4-cyclopropylbenzyl)-2-(2-isopropylphenyl)piperazin-1-yl)-7-azaspiro[3.5]non-7-yl)-N-((7-((((1r, 4r)-4-hydroxy-4-methylcyclohexyl)methyl)amino)-6-nitrobenzo[d][1,3]dioxocyclopent-4-yl)sulfonyl)benzamide]
